In patent publication US5565460A, “Therapeutic purine agents for parkinson's disease” (Kyowa Hakko Koygo Co., Ltd., priority 1993, dated 1996):

Columns and labels:
[1] = test system: rats with a 6-hydroxydopamine-induced unilateral lesion of the nigrostriatal dopamine pathway; assay: Augmentation of the contralateral rotation in rats with a 6-hydroxydopamine-induced unilateral lesion of the nigrostriatal dopamine pathway; type: in vivo, male Sprague-Dawley rats; conditions: 150 minutes
Description: When a unilateral lesion of the nigrostriatal pathway is induced by 6-hydroxydopamine in rodents, the sensitivity of dopamine receptors in the denervated striatum is enhanced. Administration of a dopamine […] to the rodents in such a condition induces a rotational behavior to the side contralateral to the lesioned side [Acta Physiol. Scand., 367, 69 (1971)]. This model has been used for a long time as a model for the study of Parkinson's disease and in the screening of drugs for this disease [Neurol. Neurobiol.; 33, 1 (1987)].
Male Sprague-Dawley rats (weighing 200 to 240 g, Japan SLC) were pretreated with desipramine hydrochloride (25 mg/kg, i.p., Sigma Co.) 30 minutes before surgery to protect noradrenergic neurons. Then, the animals were: anesthetized with sodium pentobarbital (30 mg/kg, i.p., Dainippon Pharm. Co., Ltd.) and the nigrostriatal pathway was lesioned by injection of 6-hydroxydopamine hydrobromide (8 μg, Sigma Co.) into the left medial forebrain bundle. 6-Hydroxydopamine hydrobromide was dissolved in physiological saline containing 0.05% L-ascorbic acid (Wako Pure Chem. Industries, Ltd.) to make 2 μl. of solution and injected over 3 minutes.
More than 10 days after surgery, each rat was placed in a plastic bowl (30 cm in diameter). […] The number of rotations was counted with an automated rotometer, in which each 180° turn was counted as a rotation. […]

[2] = test system: Parkinson's disease model in mice (MPTP); assay: Effect on locomotor activity in Parkinson's disease model in mice (MPTP-treated mice); type: in vivo, male C57BL/6 mice; conditions: 30 minutes measurement
Description: 1-Methyl-4-phenyl-1,2,3,6-tetrahydropyridine (MPTP) causes symptoms of Parkinson's disease in humans Science, 219, 979 (1983)]. It is reported that an experimental Parkinson's disease model was obtained by administering MPTP to mice [Science, 224, 1451 (1984)]. If a compound is effective on the experimental Parkinson's disease model in mouse, the compound can be expected to have a therapeutic effect on Parkinson's disease.
The experiment was performed by using several groups of 7-weeks-old male C57BL/6 mice (weighing 20 to 24 g, Japan SLC), each group consisting of 8 mice. MPTP (RBI Co., Ltd. ) dissolved in a physiological saline solution (Otsuka Pharmaceutical Co., Ltd. ) was intraperitoneally administered to each mouse once a day for five consecutive days at a dose of 30 mg/kg. Test compounds were suspended in injectable distilled water (Otsuka Pharmaceutical Co., Ltd.) containing Tween 80 [polyoxyethylene (20) sorbitan monooleate]. […] The amount of active movements of each mouse was measured by using Automex-II (Columbus Instruments International Corp.) for the period of 30 minutes starting 30 minutes after the administration of the test compound. The effect of the compounds was evaluated by comparing the average counts of the active movements of the test compound-administered groups with those of the control groups. […]

[3] = test system: Haloperidol-induced catalepsy in mice; assay: Effect on haloperidol-induced catalepsy; type: in vivo, male ddY mice; conditions: Mus musculus; ten mice at each dose; effective = catalepsy score 3 or less; Probit analysis; read-out: ED50 (50% effective dose)
[4] = test system: rid-strain male mice; assay: Acute toxicity test; type: in vivo; conditions: oral, seven days after administration
Description: Test compounds were orally administered to groups of rid-strain male mice weighing 20±1 g, each group consisting of three mice. Seven days after the administration, minimum lethal dose (MLD) of each compound was determined by observing the mortality.

[5] = test system: Haloperidol-induced catalepsy in mice; assay: Effect on haloperidol-induced catalepsy; type: in vivo, male ddY mice; conditions: 10 mg/kg, oral; for Number of the Animals Showing Remission: five mice, catalepsy score not more than 4; for Remission Rate: rate of decrease in total score based on control group; for Total Score (catalepsy): total of five mice, 25 points at the full (control 25), not more than 20 effective
Description: The experiment was performed by using several groups of 5-weeks-old male ddY mice (weighing 22.to 24 g, Japan SLC), each group consisting of 5 mice. Haloperidol (Janssen Pharmaceutical) suspended in 0.3% CMC was intraperitoneally administered to each mouse at a dose of 1.0 mg/kg. Test compounds were suspended in 0.3% CMC or in injectable distilled water (Otsuka Pharmaceutical Co., Ltd.) containing Tween 80. L-DOPA (Kyowa Hakko Kogyo Co., Ltd.) and benserazide hydrochloride (Kyowa Hakko Kogyo Co., Ltd.) were suspended in 0.3% CMC. One hour after the haloperidol administration, the test compound suspensions and the control suspension [injectable distilled water (Otsuka Pharmaceutical Co., Ltd.) containing Tween 80] containing no test compound were orally administered to separate groups of the mice (0.1 ml per 10 g of body weight). One hour after the administration of the test compound, the forelimbs of each mouse and subsequently the hindlimbs of the same mouse were placed on a 4.5 cm-high, 1.0 cm-wide bar and catalepsy was estimated. […] The catalepsy score and the standard of judgment are shown. below.
0: forelimbs less than 5 seconds
hindlimbs less than 5 seconds
2: forelimbs 10 seconds or more
hindlimbs 5 seconds or more
hindlimbs 10 seconds or more
5: forelimbs 10 seconds or more
The effect of the compounds was evaluated by the total of the catalepsy scores of five mice in each group (25 points at the full). The groups wherein the total score was not more than 20 point is were estimated to be effective. The number of the animals showing remission against catalepsy is the number of the mice for which the catalepsy score was not more than 4 points.
The ED50 values were calculated by Probit analysis.

Row | Compound | total rotation counts (average count ± S.E.M.), test compound + apomorphine ([1]; 10 mg/kg oral 30 minutes before apomorphine 0.1 mg/kg, s.c., p<0.05) | Amount of Active Movements (average count ± S.E.M) ([2]; 10 mg/kg, oral, MPTP group 41 ± 14.3, normal control 1984 ± 122.3) | ED50 [3] | minimum lethal dose (MLD) [4] | Number of the Animals Showing Remission [5] | Remission Rate [5] | Total Score (catalepsy) [5] | Amount of Active Movements (average count ± S.E.M) ([2]; L-DOPA 300 mg/kg, MPTP group 207 ± 85.5, normal control 1875 ± 77.7, no significant difference vs MPTP-treated group) | total rotation counts (average count ± S.E.M.), apomorphine ([1]; apomorphine 0.1 mg/kg, s.c. without test compound)
1 | Nc1nc(Oc2ccccc2)nc2nc(-c3ccco3)nn12 [Compound 1, 7-Amino-2(2-furyl) -5-phenoxy [1,2,4]triazolo[1,5-a]-1,3,5-triazine] | 1011 ± 139 count | 785 ± 87.3 count | 1.3 mg/kg | greater than 300 mg/kg | 5 | 80% | 5 |  | 
2 | Nc1nc(Oc2ccccc2)nc2cc(-c3ccco3)nn12 [Compound 2, 7-Amino-2-(2-furyl) -5-phenoxypyrazolo [2,3-a]-1,3,5-triazine] |  |  |  | greater than 300 mg/kg | 4 | 32% | 17 |  | 
3 | Nc1nc2ccc(Cl)cc2c2nc(-c3ccco3)nn12 [Compound 3, 5-Amino-9-chloro-2-(2-furyl) -1,2,4-triazolo-[1,5-c]quinazoline] |  |  |  |  | 4 | 48% | 13 |  | 
4 | Nc1nc2nn(Cc3ccc(F)cc3)cc2c2nc(-c3ccco3)nn12 [Compound 4, 5-Amino-8-(4-fluorobenzyl) -2-(2-furyl)pyrazolo-[4,3-e]-1,2,4-triazolo [1,5-c]pyrimidine] |  |  |  |  | 3 | 52% | 12 |  | 
5 | N[C@@H](Cc1ccc(O)c(O)c1)C(=O)O [L-DOPA, reference compound] |  |  |  |  |  |  |  | 561 ± 271.01 count | 
6 | CN1CCc2cccc3c2[C@H]1Cc1ccc(O)c(O)c1-3 [apomorphine, reference compound] |  |  |  |  |  |  |  |  | 706 ± 59 count
